Here are results for two compounds from PMC3058116 (Therapeutic drug monitoring, 2011).

Each structure is given as a SMILES string.

The conditions of series [1]: cited from earlier work.
Series [2] in a line: Population pharmacokinetic analysis. The class given is in vivo, HIV-infected Thai patients.
The mark [3] stands for this setting: indinavir model, bootstrap median.
The mark [4] stands for this setting: indinavir model, final model estimate.

For `CC(C)(C)NC(=O)[C@@H]1CN(Cc2cccnc2)CCN1C[C@@H](O)C[C@@H](Cc1ccccc1)C(=O)N[C@H]1c2ccccc2C[C@H]1O` [IDV, Indinavir], in series [1] (Thai patients receiving IDV/r 800/100 mg twice daily), the “indinavir AUC associated with an increased risk of developing nephrotoxicity” value was more than 60000 µg·h/mL. Further, in series [1] (after adjusting for concomitant ritonavir use), the “indinavir CL/F higher in male patients compared to female patients” value is recorded as 30%. In addition, the “indinavir bioavailability higher in female patients than in males” value in series [1] (analysis including only nine women) is recorded as 48%. In addition, in series [2] (setting [3]), the “Inter-individual variability IIV (CL/F)” value is recorded as 0.29; the “Inter-individual variability IIV (Ktr)” value amounted to 0.352; the “Ktr (= Ka within a transit model)” value worked out at 2.37 h⁻¹; the “Residual variability, proportional σ (IDV 400 mg)” value is recorded as 0.42. Moreover, the “Residual variability, proportional σ (IDV 600 mg)” value in series [2] (setting [3]) is recorded as 0.29. In addition, in series [2] (setting [4]), the “Inter-individual variability IIV (CL/F)” value was 0.30; the “Inter-individual variability IIV (Ktr)” value was 0.38; the “Ktr (= Ka within a transit model)” value was 2.32 h⁻¹; the “Residual variability, proportional σ (IDV 400 mg)” value is 0.42. For the same compound, in series [2] (setting [4]), the “Residual variability, proportional σ (IDV 600 mg)” value is reported as 0.29. In addition, in series [2] (indinavir model, final model, ω^2(V/F) = θpV/F × ω^2(CL/F)), the “Inter-individual variability IIV (Vd/F)” value was determined as 0.23. Besides, the “interindividual variability of CL/F” value in series [2] (indinavir, final population estimate) is 30%.
Take `CC(C)c1nc(CN(C)C(=O)N[C@H](C(=O)N[C@@H](Cc2ccccc2)C[C@H](O)[C@H](Cc2ccccc2)NC(=O)OCc2cncs2)C(C)C)cs1` [RTV, ritonavir]: in series [2] (both, human, in vivo), the “Residual variability σ (Proportional)” value is on record as 0.36, the “interindividual variability of CL/F” value was determined as 48%, the “interindividual variability of Vd/F” value is 45% and the “θIDVDOSE-600mg (factor on ritonavir CL/F)” value turned out to be 0.78. The “θSEX-Female (factor on ritonavir CL/F)” value in series [2] (both, human, in vivo) was determined as 0.77. In series [2] (human, in vivo), the apparent clearance (CL/F) turned out to be 10.1 L/h. For the same compound, the CL/F in series [2] (human, in vivo, 100 mg) is 10.1 L/h.
